“Also recorded” adds a separate entry of the source. Like-named read-outs stand apart in the source and are kept apart here.

Data set [1] concerns TMV. Briefly: TMV replication in TMV-infected tobacco leaf discs (ELISA). In kind it is cell-based, tobacco mosaic virus. The conditions noted are these: up to 2×10^-7 M (FIG. 1). As for the experimental part: Plant material treatment and measurement of infectivity. Partially purified AVF was prepared. The growth of N. glutinosa, N. tabacum Var. "Samsun", N. tabacum cv. Samsun NN, and preparation and inoculation of protoplasts were as described. To evaluate the effect of 2',5'-cores, nucleotides and nucleosides on TMV replication, various concentrations were added to 10 ml of protoplast suspension (1×10^5 cells/ml) at various times after inoculation with TMV. Protoplasts were incubated at 25° C. under continuous illumination of about 1500 Lx. At various times protoplasts were collected by centrifugation and homogenized. The homogenate was inoculated onto 12 half-leaves of N. glutinosa plants and compared to a standard solution of purified TMV on the opposite half-leaves. Lesion counts were adjusted to 10^6 live protoplasts and calibrated. Control protoplasts (no Nucleotides added) were assayed simultaneously. The assays for antiviral activity on TMV-infected tobacco leaf discs were done by enzyme-linked immunosorbent assay. The ability of the 2',5'-cores, nucleosides, and nucleotides to inhibit TMV replication in the intact plant was determined by infectivity tests as follows. […]
TMV-infected tobacco leaf discs, treatment and TMV determination. […] Discs were removed at various times after TMV inoculation and their TMV content was determined. […]

For data set [2], the system named is TMV. Briefly: Inhibition of TMV replication in intact N. glutinosa leaves (local lesion infectivity test). The conditions noted are these: for inhibition at 1 µM: Tobacco mosaic virus, 48 h, read-out: Inhibition of TMV replication in N. glutinosa leaves; for Inhibition of TMV replication in N. glutinosa leaves: 1 × 10^-6 M in the infecting solution, 48 hours after infection (Table 3). The class given is in vivo, tobacco mosaic virus.

Data set [3] deals with TMV. Put plainly: Inhibition of TMV replication in tobacco protoplasts (homogenates assayed for local lesions). The class given is cell-based, tobacco mosaic virus. As to conditions: for inhibition at 0.1 µM: Tobacco mosaic virus, 1 × 10^-7 M, added within 3 hours of infection, average of four experiments. On the procedure:
Plant material treatment and measurement of infectivity. Partially purified AVF was prepared. The growth of N. glutinosa, N. tabacum Var. "Samsun", N. tabacum cv. Samsun NN, and preparation and inoculation of protoplasts were as described. To evaluate the effect of 2',5'-cores, nucleotides and nucleosides on TMV replication, various concentrations were added to 10 ml of protoplast suspension (1×10^5 cells/ml) at various times after inoculation with TMV. Protoplasts were incubated at 25° C. under continuous illumination of about 1500 Lx. At various times protoplasts were collected by centrifugation and homogenized. The homogenate was inoculated onto 12 half-leaves of N. glutinosa plants and compared to a standard solution of purified TMV on the opposite half-leaves. Lesion counts were adjusted to 10^6 live protoplasts and calibrated. Control protoplasts (no Nucleotides added) were assayed simultaneously. The assays for antiviral activity on TMV-infected tobacco leaf discs were done by enzyme-linked immunosorbent assay. The ability of the 2',5'-cores, nucleosides, and nucleotides to inhibit TMV replication in the intact plant was determined by infectivity tests as follows. Solutions containing 5 μg/ml TMV, 0.1 g carborundum (100 Tyler mesh), and 2',5'-cores, nucleosides, or nucleotides were applied onto 12 half-leaves of N. glutinosa. The remaining half-leaves were controls (inoculated with a solution containing no nucleotides). The infection was allowed to proceed 48 hours under continuous illumination.
the TMVinfected protoplasts within 3 hours of infection.
^b Average of four experiments.
by the 2',5cores, nucleosides and nucleotides was calculated as the
percent of local leasions produced in N. glutinosa treated by homogenates
of protoplasts compared to nontreated protoplasts.

The next data set deals with N. glutinosa. In kind it is in vivo. The conditions noted are these: non-infected plants, 1×10^-6 M, two week period. On the procedure:
Effect of 2',5'-adenylate trimer core and its analogs on TMV replication in intact plants. […] The cores inhibited the formation of local lesions following TMV infection by 89-99% (Table 3). […] Non-infected plants were treated with 1×10^-6 M 2',5'adenylate trimer core, 2',5'-cordycepin trimer core, 2',5'-A-A-ara-A, and 2',5'-A-A-Tu (data not shown).

Setting [4] is: read-out: Inhibition of TMV replication after 24 hr.
Where [5] appears, read: read-out: Inhibition of TMV replication after 48 hr.
The mark [6] stands for this setting: read-out: Inhibition of TMV replication after 72 hr.
Where [7] appears, read: 1×10^-6 M in the TMV-infecting solution.

In the case of `Nc1ncnc2c1ncn2[C@@H]1O[C@H](COP(=O)(O)O)[C@@H](O)[C@H]1O` [AMP], the “Inhibition of TMV replication in tobacco leaf discs (in words)” value in the data set with TMV [1] is listed as “no inhibition of TMV replication”. For the same molecule, in the data set on TMV [2], the inhibition at 1 µM amounted to 10%. For the same molecule, in the data set with TMV [3], the “Inhibition of TMV replication in protoplasts (in words)” value (“Inhibition … in protoplasts (in words)” for short) is listed as “less inhibitory; also recorded: some inhibition of TMV replication”. The inhibition at 0.1 µM is 22% in the data set on TMV [3] (setting [4]) and 33% in the data set on TMV [3] (setting [5]).

With `Nc1ncnc2c1ncn2[C@@H]1O[C@H](CO)[C@@H](O)[C@H]1O` [Adenosine, adenosine], the “Inhibition of TMV replication in tobacco leaf discs (in words)” value in the data set on TMV [1] is “no inhibition of TMV replication”. Moreover, the inhibition at 1 µM in the data set on TMV [2] is 0%. The “Inhibition … in protoplasts (in words)” value in the data set on TMV [3] is “less inhibitory”; in the data set with TMV [3] (listed as adenosine), “some inhibition of TMV replication”. For the same molecule, the inhibition at 0.1 µM was 14% with TMV [3] (setting [4]) and 0% with TMV [3] (setting [5]).

In the case of `Nc1ncnc2c1ncn2[C@@H]1O[C@H](COP(=O)(O)O)[C@@H](O)[C@@H]1O` [Ara-AMP], the inhibition at 1 µM in the data set with TMV [2] came to 0%.

Consider `Nc1ncnc2c1ncn2[C@@H]1O[C@H](CO)[C@@H](O)[C@@H]1O` [Ara-a], for which the inhibition at 1 µM with TMV [2] turned out to be 0%.

With `Nc1ncnc2c1ncn2[C@@H]1O[C@H](COP(=O)(O)O)C[C@H]1O` [Cordycepin monophosphate, Cordycepin 5'-monophosphate], in the data set on TMV [2], the inhibition at 1 µM came out at 0%.

As for `Nc1ncnc2c1ncn2[C@@H]1O[C@H](CO)C[C@H]1O` [Cordycepin, cordycepin], the inhibition at 1 µM in the data set with TMV [2] was found to be 0%. Besides, the “Inhibition … in protoplasts (in words)” value with TMV [3] is listed as “less inhibitory”. In addition, the inhibition at 0.1 µM is 21% with TMV [3] (setting [5]) and 32% with TMV [3] (setting [6]).

Turning to `OC[C@H]1O[C@@H](n2cnc3c(O)ncnc32)[C@H](O)[C@@H]1O` [Inosine, inosine], the inhibition at 1 µM in the data set with TMV [2] came out at 0%. Moreover, the “Inhibition … in protoplasts (in words)” value in the data set with TMV [3] is given as “less inhibitory”. Besides, the inhibition at 0.1 µM is 22% in the data set on TMV [3] (setting [5]) and 25% in the data set with TMV [3] (setting [6]).

Consider `Nc1ncnc2c1ccn2[C@@H]1O[C@H](COP(=O)(O)O)[C@@H](O)[C@H]1O` [TuMP, tubercidin 5'-monophosphate], for which the inhibition at 1 µM in the data set on TMV [2] is 0%.

Turning to `Nc1ncnc2c1ccn2[C@@H]1O[C@H](CO)[C@@H](O)[C@H]1O` [Tubercidin, tubercidin], in the data set on TMV [2], the inhibition at 1 µM worked out at 0%.

Consider “adenylyl-(2' 5')-adenylyl-(2' 5')-9-β-D-arabinofuranosyladenine [2',5'-A-A-ara-A]”, for which, in the data set on N. glutinosa, the “Toxicity (chlorosis or necrosis)” value is on record as “No toxicity (chlorosis or necrosis) was observed”. Further, the “Inhibition of TMV replication in N. glutinosa (in words)” value is “potent inhibitors of TMV replication” in the data set on TMV [2] (setting [7]); “inhibition of TMV replication” with TMV [2] (no single concentration stated); “also inhibited TMV replication” in the data set on TMV [2] (no single concentration stated, listed as A-A-ara-A). The “Inhibition of TMV replication in N. glutinosa leaves” value with TMV [2] is on record as 94%.

Consider “adenylyl-(2' 5')-adenylyl-(2' 5)-tubercidin [2',5'-A-A-Tu]”, for which the “Toxicity (chlorosis or necrosis)” value with N. glutinosa is on record as “No toxicity (chlorosis or necrosis) was observed”. The “Inhibition of TMV replication in N. glutinosa (in words)” value in the data set with TMV [2] (setting [7]) is recorded as “potent inhibitors of TMV replication”; in the data set with TMV [2] (no single concentration stated), “also inhibited TMV replication”. For the same molecule, the “Inhibition of TMV replication in N. glutinosa leaves” value with TMV [2] is on record as 95%.

The record behind these values is patent publication US4654326A, “Inhibition of plant viruses with oligonucleotides” (priority 1984, dated 1987).
